Experimental findings from patent US20220243211A1, “PEPTIDE NUCLEIC ACID COMPOSITIONS WITH MODIFIED HOOGSTEEN BINDING SEGMENTS AND METHODS OF USE THEREOF” (Yale University, priority 2019, published 2022) are described below.

Data set [1] in a line: Zeta potential and hydrodynamic diameter of formulated NPs by dynamic light scattering. It counts as physicochemical. Particulars: NPs containing PNA/donor DNA, PBS buffer, n = 3; for Z Av Diameter: dynamic light scattering. The method, then:
Blank NPs containing no PNA and a mismatch donor DNA as a control were prepared as a control. The mismatched donor DNA was purposely added into blank NPs because addition of donor DNA helps to produce a similar surface charge on the control NPs as on the test NPs encapsulated with PNA/donor DNA combinations. […] All NP in the diameters were in the range of 200-350 nm, as measured by dynamic light scattering (Table 1), consistent with previous measurements (McNeer, et al., Nat Commun 6, 6952 (2015), Fields, et al., Adv Healthc Mater 4, 361-366 (2015), Fields, et al., J Control Release 164, 41-48 (2012)). PNA/DNA-loaded NPs were cationic (Fields, et al., Adv Healthc Mater 4, 361-366 (2015), Fields, et al., J Control Release 164, 41-48 (2012)) for PBAE/PLGA/MPG NPs (Table 1).

The subject of data set [2] is human CFBE cells. In words: MQAE cAMP-stimulated chloride efflux assay. It counts as cell-based. An excerpt:
FIG. 3 is a bar graph showing chloride efflux measured using fluorescent indicator dye N-[ethoxycarbonylmethyl]-6-methoxy-quinolinium bromide (MQAE), in untreated human CFBE cells and those treated with NPs, and those treated with blank particles. One way ANOVA with multiple comparisons was used to analyze chloride efflux in untreated CF cells, blank particle treated CF cells, PNA/DNA particle treated cells and normal human bronchial epithelial cells (16HBE14o-).
CFBE cells (CFBE41o-) and human bronchial epithelial cells (16HBE14o-) (Gruenert, et al., J Cyst Fibros 3 Suppl 2, 191-196 (2004)) were grown with EMEM (Corning) with 10% FBS, 20 mM L-glutamine, and Pen/Strep. Once grown to confluence, cells were trypsinized by first washing with PBS, then adding 0.25% trypsin for 5 minutes, and harvesting with culture media. Once grown to confluence, cells were trypsinized by first washing with 0.05% trypsin, then adding 0.25% trypsin for 5 minutes, and harvesting with RPMI medium with 10% FBS. Cells were frozen in 5% DMSO in culture medium as necessary. NPs were suspended in culture media by vigorous vortexing and water sonication, then added directly to cells at concentrations of 2 mg/mL×10^6 cells (corresponding to approximately 10^9 PNA/DNA molecules delivered to each cell assuming 100% efficiency).
Glass coverslips (22×50 mm) were sterilized by dipping in 70% EtOH and were subsequently placed in 60 mm cell culture dishes (3 per dish.) The plates were exposed to UV irradiation overnight. Cells (˜1×10^6) were seeded in the dish and the cells grew to confluence in MEM media containing 10% FBS, L-glutamine, and pen/strep. At least 12 hours before the experiment, the cells were fed with MEM media containing 5% FBS, L-glutamine, and pen/strep. The experiment was run as previously described (Shenoy, et al., Pediatric research 70, 447-452 (2011)). Briefly, cells were incubated with N-[ethoxycarbonylmethyl]-6-methoxy-quinolinium bromide (MQAE, Invitrogen) in DMSO (100 uL, 30 mM suspended in HEPES Cl solution) for 30 minutes at 37° C. […] MQAE was excited at 354±10 nm and the emitted fluorescence of at least 20 cells was measured at 460±10 nm every five seconds for two minutes. […] The rate of change in MQAE fluorescence (Δarbitrary fluorescence units/sec) was used to calculate Cl^− efflux.
To compare the activity of unmodified (classic) and γPNA treatments on gene editing in human CFBE cells, the cells were treated with either PLGA NPs containing no PNA/mismatched donor DNA (referred to as blank NP), PLGA NPs containing hCF-PNA/donor DNA, PBAE/PLGA/MPG NPs containing hCF-PNA/donor DNA and PBAE/PLGA/MPG NPs containing γhCF-PNA-h/donor DNA. After treatment of the cells, cAMP-stimulated chloride efflux was quantified using the MQAE assay (McNeer, et al., Nat Commun 6, 6952 (2015)). […]

Setting [3] is: PBAE/PLGA/MPG NPs with PNA/donor DNA.

On to “H-KKK-TJTJJTTT-OOO-TTTCCTCTATGGGTAAG-KKK-NH2 [hCF PNA] (TNTNNTTTTTTCCTCTATGGGTAAG; listed as DNA, chemistry not fully specified)”, for which, in data set [1], the “Zeta Potential” value stood at 14.2 mV and the “Z Av Diameter” value is reported as 291.7 nm. Also, the chloride efflux result in data set [2] (setting [3]) is “further enhanced”. Besides, the chloride efflux entry in data set [2] (PLGA NPs with PNA/donor DNA) is recorded as “marked increase in chloride efflux”.

For the substance “H-KKK-TJTJJTTT-OOO-TTTCCTCTATGGGTAAG-KKK-NH2 [γhCF PNA-h] (TNTNNTTTTTTCCTCTATGGGTAAG; listed as DNA, chemistry not fully specified) [tail clamp PNA targeting human CFTR gene with MPγ monomers in Hoogsteen domain]”, in data set [1], the “Zeta Potential” value came out at 13.3 mV and the “Z Av Diameter” value came out at 293.2 nm. For the same substance, in data set [2] (setting [3]), the chloride efflux result is given as “no different than non-CF affected HBE cells” and the “chloride efflux compared to untreated cells or blank NPs” value was 7 fold.
